From paper PMC12775434, “Ultra-large virtual screening unveils potent agonists of the neuromodulatory orphan receptor GPR139” (Nature Communications, 2025)
“And” between values parts separate entries of the source, which are not always exact repeats. Identical values can stand only once.

How the values were obtained:
GPR139 [1] = molecular target: T1, GPR139 (Homo sapiens, UniProt Q6DWJ6); assay: Ca2+ mobilization assay, antagonist mode (EC80 800 nM Lundbeck Cmp 1a after 20 min preincubation), GPR139-CHOk1; format: cell-based
T1 sequence (Q6DWJ6 1-353): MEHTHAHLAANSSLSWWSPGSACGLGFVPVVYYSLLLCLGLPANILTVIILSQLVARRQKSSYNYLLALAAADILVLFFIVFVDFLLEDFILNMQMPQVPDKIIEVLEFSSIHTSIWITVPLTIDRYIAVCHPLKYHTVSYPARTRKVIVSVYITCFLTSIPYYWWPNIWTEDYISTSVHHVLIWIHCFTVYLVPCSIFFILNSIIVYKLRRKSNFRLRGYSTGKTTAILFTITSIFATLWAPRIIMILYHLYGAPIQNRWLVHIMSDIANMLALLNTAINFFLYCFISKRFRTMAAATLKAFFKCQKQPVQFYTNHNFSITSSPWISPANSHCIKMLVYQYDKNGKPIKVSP
Procedure: (§1) 30,000 GPR139- or M1R-CHOk1 cells/well were seeded in black clear bottom tissue culture treated 96-well plates (Greiner #655090) and grown for 20–24 h. Cells were washed with HEPES buffer (Hank’s Balanced Salt Solution (HBBS) supplemented with 20 mM HEPES, 1 mM MgCl2, and 1 mM CaCl2; pH 7.4). Cells were loaded with 50 µL of 2 µM Fluo-4 AM dye (ThermoFisher #F14202) in HEPES buffer supplemented with 2.5 mM probenecid and 0.01% Pluronic F-68 (ThermoFisher #24040032) for 1 h at 37 °C. Cells were washed with HEPES buffer. 50 µL HEPES buffer supplemented with 2.5 mM probenecid was added, and the cells were incubated for 10 min at 37 °C before measurement. 50 µL test compounds diluted in HEPES buffer from DMSO stocks (final DMSO concentration of maximally 0.3%) were added automatically after baseline measurements. The intracellular calcium mobilization was measured on a FlexStation 3 Multimode Microplate Reader (Molecular Devices) at 37 °C with filters for excitation of 485 nm and emission of 525 nm.
Our primary compound screening protocol consisted of two subsequent steps that allowed to screen for agonists and antagonists simultaneously. In the first step, the screening compounds were applied at 10 µM to test for agonist activity (agonist mode). Following 20 min incubation with the compounds added in the first step, in the second step, an EC80 concentration (800 nM) of the reference agonist Lundbeck Cmp 1a was applied to test for antagonist activity (antagonist mode). In the agonist mode (first step) response is seen only with compounds having agonist activity (Cmp 1a), but not with non-receptor-binding compounds (Vehicle) or antagonists (NCRW0105-E06) (Supplementary Fig. 14). […] No antagonist compounds were identified in this study.

GPR139 [2] = molecular target: T1, GPR139; assay: Ca2+ mobilization assay, agonist mode, stable GPR139-CHOk1 cell line; format: cell-based
Procedure: Primary screening and pharmacological characterization of compounds were performed using a CHO-K1 cell line that stably expresses human GPR139 (GPR139-CHOk1). The GPR139-CHOk1 cell line was kindly provided by H. Lundbeck A/S, Denmark[24]. GPR139-CHOk1 cells were grown in Ham’s F-12 Kaighn’s Modification Medium (ThermoFisher #21127030) supplemented with 10% dialyzed fetal bovine serum (US origin, ThermoFisher #26400044), 100 units/mL Penicillin-Streptomycin (ThermoFisher #15140122), and 1 mg/mL Geneticin (ThermoFisher #11811031). […] M1R-CHOk1 cells were purchased from The Missouri S&T cDNA Resource Center (#CEM100TN00). M1R-CHOk1 cells were grown in Ham’s F12 Medium (ThermoFisher #21765029) supplemented with 10% fetal bovine serum (Brazilian origin, ThermoFisher #10270106), 100 units/mL Penicillin-Streptomycin, and 0.25 mg/mL Geneticin. HEK293A cells transiently transfected with GPR139 were used for additional pharmacological assessment of signaling pathways activated by GPR139. HEK239A cells were generously provided by Dr. Asuka Inoue, Tohoku University, Japan. HEK293A cells were grown in Dulbecco’s Modified Eagle Medium (ThermoFisher #31966047) supplemented with 10% dialyzed fetal bovine serum and 100 units/mL Penicillin-Streptomycin. Cell lines were maintained at 37 °C in humidified incubator equilibrated with 5% CO2.
as §1
Our primary compound screening protocol consisted of two subsequent steps that allowed to screen for agonists and antagonists simultaneously. In the first step, the screening compounds were applied at 10 µM to test for agonist activity (agonist mode). Following 20 min incubation with the compounds added in the first step, in the second step, an EC80 concentration (800 nM) of the reference agonist Lundbeck Cmp 1a was applied to test for antagonist activity (antagonist mode).
Pharmacological data and statistical analyses were performed in GraphPad Prism v9–10 (Graphpad Software Inc., San Diego, CA), which are also specifically described in the figure and table legends. The functional assay responses were normalized to buffer (0%) and Lundbeck Cmp 1a or JNJ-63533054 (100%), for Ca^2+ and IP1 experiments in the GPR139-CHOk1 stable cell line or Ca^2+, G protein activation, and arrestin-3 recruitment experiments in the HEK293A cells transiently transfected with GPR139, respectively. Data are from at least three independent experiments, unless stated otherwise. Concentration-response curves were fitted applying non-linear regression using the log (agonist) versus response model with variable slope. ANOVA was applied for comparing results and determining statistical significance.

[3] = individual replicates (Supplementary Figure 4)
[4] = Agonist mode, individual replicates (Supplementary Figure 4)
[5] = individual replicates (Supplementary Figure 1)
[6] = Agonist mode, individual replicates (Supplementary Figure 1)

SMILES | Ca2+ signal (% of Cmp 1a) (GPR139 [1]; [5]) | Ca2+ signal (% of Cmp 1a) (GPR139 [2]; [6]) | other results
COc1ccc2cc(-c3nc(CC(=O)NC(C)c4ccccc4)no3)sc2c1 (centres unmarked) [Compound 1.36, COC1=CC2=C(C=C(C3=NC(CC(NC(C4=CC=CC=C4)C)=O)=NO3)S2)C=C1] |  |  | Ca2+ signal (% of Cmp 1a) (GPR139 [1]; [3]): 52 % of Cmp 1a and 69 % of Cmp 1a and 54 % of Cmp 1a; activation of GPR139 in analog screen (GPR139 [2]; 10 µM): All analogs, with the exception of compound 1.36, activated GPR139; Ca2+ signal (% of Cmp 1a) (GPR139 [2]; [4]): 0 % of Cmp 1a and -15 % of Cmp 1a and -10 % of Cmp 1a; change in potency with larger substituents on the thiophene ring (GPR139 [2]; Ca2+ mobilization): three-fold reduction to a complete loss of activity
COc1ccc(OCc2nc(CC(=O)NC(C)c3ccccc3)no2)cc1 (centres unmarked) [Compound 1.37, COC1=CC=C(OCC2=NC(CC(NC(C3=CC=CC=C3)C)=O)=NO2)C=C1] |  |  | Ca2+ signal (% of Cmp 1a) (GPR139 [1]; [3]): 36 % of Cmp 1a and 40 % of Cmp 1a and 37 % of Cmp 1a; Ca2+ signal (% of Cmp 1a) (GPR139 [2]; [4]): 65 % of Cmp 1a and 55 % of Cmp 1a and 21 % of Cmp 1a
CC(NC(=O)Cc1coc(-c2cccs2)n1)c1ccccc1 (centres unmarked) [Compound 1.44, CC(NC(=O)CC1=COC(=N1)C2=CC=CS2)C=3C=CC=CC3] |  |  | Ca2+ signal (% of Cmp 1a) (GPR139 [1]; [3]): -8 % of Cmp 1a and 68 % of Cmp 1a and 69 % of Cmp 1a; calcium mobilization response relative to Lundbeck Cmp 1a (GPR139 [2]; 10 µM compound, agonist mode): 43%; Ca2+ signal (% of Cmp 1a) (GPR139 [2]; [4]): 88 % of Cmp 1a and 15 % of Cmp 1a and 25 % of Cmp 1a; fold decrease in potency on substitution of the central oxadiazole ring (GPR139 [2]; Ca2+ mobilization): > 50 fold; EC50 (GPR139 [2]; GPR139-CHOk1, read-out: EC50, Ca2+ mobilization): > 10 µM
Cc1nn(C)c2nc(C(=O)N[C@@H](C)c3ccccc3)ccc12 [Compound 15, C[C@H](NC(=O)C=1C=CC=2C(C)=NN(C)C2N1)C=3C=CC=CC3] | 88.3523 % of Cmp 1a and 83.7132 % of Cmp 1a and 99.0735 % of Cmp 1a | -11 % of Cmp 1a and 0.224 % of Cmp 1a and 7.56 % of Cmp 1a | 
C[C@H](NC(=O)c1ccc(=O)n(-c2ccc(F)cc2)n1)c1ccccc1 [Compound 16, C[C@H](NC(=O)C=1C=CC(=O)N(N1)C=2C=CC(F)=CC2)C=3C=CC=CC3] | 74.1067 % of Cmp 1a and 36.0111 % of Cmp 1a and 92.3974 % of Cmp 1a | -6 % of Cmp 1a and 42 % of Cmp 1a and 24 % of Cmp 1a | 
Cc1nnnn1C(=Cc1ccccc1)C(=O)N[C@@H](C)c1ccccc1 [Compound 17, C[C@H](NC(=O)C(=CC=1C=CC=CC1)N2N=NN=C2C)C=3C=CC=CC3] | 61.7351 % of Cmp 1a and 85.7644 % of Cmp 1a and 78.6356 % of Cmp 1a | 4.36 % of Cmp 1a and -2.84 % of Cmp 1a and 2.54 % of Cmp 1a | 
C[C@H](NC(=O)c1cn2cccnc2n1)c1ccccc1 [Compound 18, C[C@H](NC(=O)C1=CN2C=CC=NC2=N1)C=3C=CC=CC3] | 80.6397 % of Cmp 1a and 68.0976 % of Cmp 1a and 80.5455 % of Cmp 1a | 2.28 % of Cmp 1a and 13 % of Cmp 1a and 21 % of Cmp 1a | 
CC(O)CN(Cc1ccccc1)C(=O)NCc1ccc(Cl)o1 (centres unmarked) [Compound 19, CC(O)CN(CC=1C=CC=CC1)C(=O)NCC2=CC=C(Cl)O2] | 78.3598 % of Cmp 1a and 79.4126 % of Cmp 1a and 77.319 % of Cmp 1a | 4 % of Cmp 1a and 5 % of Cmp 1a and 6.65 % of Cmp 1a | Ca2+ signal (% of Cmp 1a) (GPR139 [2]; primary screen, 10 µM compound, agonist mode, three columns = independent experiments): 4 % of Cmp 1a and 5 % of Cmp 1a and 6.65 % of Cmp 1a
CC(C)(NC(=O)Nc1ccccc1)C(=O)Nc1cnc2ccccc2c1 [Compound 20, CC(C)(NC(=O)NC=1C=CC=CC1)C(=O)NC=2C=NC=3C=CC=CC3C2] | 73.2682 % of Cmp 1a and 77.4411 % of Cmp 1a and 81.0233 % of Cmp 1a | 2.84 % of Cmp 1a and -2.82 % of Cmp 1a and 13 % of Cmp 1a | 
Cc1ccc(OCC(=O)Nc2ccc3c(c2)nc(C)n3C)cc1 [Compound 21, CC1=NC=2C=C(NC(=O)COC=3C=CC(C)=CC3)C=CC2N1C] | 67.0268 % of Cmp 1a and 92.847 % of Cmp 1a and 77.1923 % of Cmp 1a | 1.09 % of Cmp 1a and -7 % of Cmp 1a and -8 % of Cmp 1a | 
CC(CC(=O)N(CC(=O)N1CCCC1)CC1CCCO1)n1cccc1 (centres unmarked) [Compound 22, CC(CC(=O)N(CC1CCCO1)CC(=O)N2CCCC2)N3C=CC=C3] | 90.9616 % of Cmp 1a and 92.7534 % of Cmp 1a and 72.9128 % of Cmp 1a | 10 % of Cmp 1a and -5.34 % of Cmp 1a and 0.0706 % of Cmp 1a | 
Cc1sc2ncn(NC(=O)c3csc4cncn34)c(=O)c2c1C [Compound 23, CC=1SC=2N=CN(NC(=O)C3=CSC4=CN=CN34)C(=O)C2C1C] | 92.3647 % of Cmp 1a and 68.6585 % of Cmp 1a and 94.6907 % of Cmp 1a | -1 % of Cmp 1a and 11 % of Cmp 1a and -1.45 % of Cmp 1a | 
O=C(Cn1ccnc1)Nc1cccc(N2C(=O)c3ccccc3C2=O)c1 [Compound 24, O=C(CN1C=CN=C1)NC=2C=CC=C(C2)N3C(=O)C=4C=CC=CC4C3=O] | 76.1398 % of Cmp 1a and 60.9703 % of Cmp 1a and 76.3719 % of Cmp 1a | -4 % of Cmp 1a and 3 % of Cmp 1a and -9 % of Cmp 1a | 
CN(Cc1nnc[nH]1)c1nc(-c2cc(Cl)cc(Cl)c2)no1 [Compound 25, CN(CC1=NN=CN1)C2=NC(=NO2)C=3C=C(Cl)C=C(Cl)C3] | 70.9298 % of Cmp 1a and 72.5727 % of Cmp 1a and 87.7637 % of Cmp 1a | 4.25 % of Cmp 1a and 1 % of Cmp 1a and 14 % of Cmp 1a | 
C[C@H](NC(=O)C1(OCc2ccccc2)CCOCC1)c1ccccc1 [Compound 26, C[C@H](NC(=O)C1(CCOCC1)OCC=2C=CC=CC2)C=3C=CC=CC3] | 89.3069 % of Cmp 1a and 86.2472 % of Cmp 1a and 83.3433 % of Cmp 1a | 2.84 % of Cmp 1a and -5 % of Cmp 1a and 4.48 % of Cmp 1a | 
Cc1cccc(-c2nc(C(=O)N3CCc4ncccc43)c(C)[nH]2)c1 [Compound 27, CC=1NC(=NC1C(=O)N2CCC=3N=CC=CC23)C=4C=CC=C(C)C4] | 81.7236 % of Cmp 1a and 71.1235 % of Cmp 1a and 80.4014 % of Cmp 1a | -4.28 % of Cmp 1a and 11 % of Cmp 1a and 2.44 % of Cmp 1a | 
O=C(NCC1CC=CCC1)Nc1cnn(-c2cnc3ccccc3n2)c1 (centres unmarked) [Compound 28, O=C(NCC1CCC=CC1)NC=2C=NN(C2)C=3C=NC=4C=CC=CC4N3] | 78.5136 % of Cmp 1a and 66.4897 % of Cmp 1a and 98.5524 % of Cmp 1a | -7.43 % of Cmp 1a and 8 % of Cmp 1a and 9 % of Cmp 1a | 
CCc1ocnc1C(=O)Nc1cccc(C(=O)NCc2ccccc2)c1 [Compound 29, CCC=1OC=NC1C(=O)NC=2C=CC=C(C2)C(=O)NCC=3C=CC=CC3] | 59.2373 % of Cmp 1a and 59.0417 % of Cmp 1a and 94.2662 % of Cmp 1a | -4.43 % of Cmp 1a and 1.9 % of Cmp 1a and 8 % of Cmp 1a | 
Cn1c(SCC(=O)Nc2c(F)cccc2F)nc2ccccc21 [Compound 30, CN1C(SCC(=O)NC=2C(F)=CC=CC2F)=NC=3C=CC=CC13] | 67.1888 % of Cmp 1a and 62.1843 % of Cmp 1a and 60.1781 % of Cmp 1a | -6.62 % of Cmp 1a and 1.6 % of Cmp 1a and 14 % of Cmp 1a | 
